Patent publication US10695396B2, “Malignant tumor target peptide” (NATIONAL INSTITUTE OF ADVANCED INDUSTRIAL SCIENCE AND …, priority 2016, dated 2020)
Like-named read-outs stand apart in the source and are kept apart here. Square brackets hold non-standard residues; d marks the D form. Peptide text beside a SMILES is read from it.

Columns and labels:
[1] = solubility and stability of IF7 (dosage form observations); type: physicochemical
Experimental: That is, IF7 peptide is protease sensitive and is susceptible to degradation. Indeed, in an experiment including intravenous administration of A488-IF7 to healthy mouse, the fluorescence signal of peripheral blood almost disappeared in about 1 hour (FIG. 5). […] In addition, IF7 has high hydrophobicity and causes difficulty in dosage form such as the need for addition of a surfactant after dissolution in DMSO, in an attempt to avoid precipitation when a compound bound with an anticancer drug is intravenously administered.

[2] = biological target: T1, Anxa1 (Homo sapiens, UniProt P04083); test: intermolecular interaction with Anxa1 measured by the QCM method; type: binding
T1 construct: human recombinant Anxa1 protein consisting of 346 amino acid residues; purchased ATGen Corporation (Seongnam-si, South Korea)
T1 sequence (P04083 1-346): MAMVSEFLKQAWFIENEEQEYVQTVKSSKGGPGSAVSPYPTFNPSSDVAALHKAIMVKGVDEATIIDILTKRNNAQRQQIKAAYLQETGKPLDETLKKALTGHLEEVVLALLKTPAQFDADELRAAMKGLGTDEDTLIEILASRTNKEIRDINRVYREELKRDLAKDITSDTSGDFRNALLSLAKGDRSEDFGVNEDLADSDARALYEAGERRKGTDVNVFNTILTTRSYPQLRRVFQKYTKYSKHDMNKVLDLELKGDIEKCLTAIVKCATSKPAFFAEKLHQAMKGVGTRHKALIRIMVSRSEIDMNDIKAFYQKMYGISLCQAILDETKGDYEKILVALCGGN
Experimental: As for the peptides of the sequences of LRFPTVL (SEQ ID NO: 13), SPTSLLF (SEQ ID NO: 14), MPTLTFR (SEQ ID NO: 15) and LLSWPSA (SEQ ID NO: 17) with high emergence frequency besides the TIT7 sequence (SEQ ID NO: 12) described in Example 1, similar to the dTIT7 peptide, peptides (dLRF7, dSPT7, dMPT7 and dLLS7 peptides) composed of D-form amino acids were synthesized and the intermolecular interaction with Anxa1 was measured for each of them by the following method.
The sensor chip was washed twice with piranha solution for 5 min and then immersed overnight in a solution of 0.9 mM hydroxy-EG3-undecanethiol (Dojindo) and 0.1 mM amino-EG6-undecanethiol (Dojindo). After washing with water, the chip was treated with 1 mM GMBS (Dojindo) and incubated at room temperature for 1 hr. After washing away the remaining GMBS, 1 mM peptide solution was added onto the chip and the chip was incubated for 30 min. The peptide-bound sensor chip was placed in a QCM apparatus (Single-Q, ASONE), and 0.5 ml of PBS was added to the well. Various doses of Anxa1 were injected into the reaction chamber and the binding affinity (kd value) for each peptide was determined.

[3] = QCM, peptide-bound sensor chip, various doses of Anxa1, read-out: kd value

SMILES	Kd [2, 3]	other results
CC[C@H](C)[C@H](N)C(=O)N[C@@H](Cc1ccccc1)C(=O)N[C@@H](CC(C)C)C(=O)N[C@@H](CC(C)C)C(=O)N[C@@H](Cc1c[nH]c2ccccc12)C(=O)N[C@@H](CCC(N)=O)C(=O)N[C@@H](CCCNC(=N)N)C(=O)O [IF7, IFLLWQR] (H-IFLLWQR-OH; N-terminus and C-terminus assumed)		solubility [1]: poor solubility; stability ([1]; protease sensitivity): low stability
CC(C)C[C@@H](N)C(=O)N[C@H](CC(C)C)C(=O)N[C@H](CO)C(=O)N[C@H](Cc1c[nH]c2ccccc12)C(=O)N1CCC[C@@H]1C(=O)N[C@H](CO)C(=O)N[C@H](C)C(=O)O [dLLS7, L[D] L[D] S[D] W[D] P[D] S[D] A[D]] (H-[dL][dL][dS][dW][dP][dS][dA]-OH; N-terminus and C-terminus assumed)	54.2 nM	
CC(C)C[C@@H](N)C(=O)N[C@H](CCCNC(=N)N)C(=O)N[C@H](Cc1ccccc1)C(=O)N1CCC[C@@H]1C(=O)N[C@@H](C(=O)N[C@@H](C(=O)N[C@H](CC(C)C)C(=O)O)C(C)C)[C@H](C)O [dLRF7, L[D] R[D] F[D] P[D] T[D] V[D] L[D]] (H-[dL][dR][dF][dP][dT][dV][dL]-OH; N-terminus and C-terminus assumed)	31.2 nM	
CSCC[C@@H](N)C(=O)N1CCC[C@@H]1C(=O)N[C@@H](C(=O)N[C@H](CC(C)C)C(=O)N[C@@H](C(=O)N[C@H](Cc1ccccc1)C(=O)N[C@H](CCCNC(=N)N)C(=O)O)[C@H](C)O)[C@H](C)O [dMPT7, M[D] P[D] T[D] L[D] T[D] F[D] R[D]] (H-[dM][dP][dT][dL][dT][dF][dR]-OH; N-terminus and C-terminus assumed)	298 nM	
CC[C@@H](C)[C@@H](NC(=O)[C@H](N)[C@H](C)O)C(=O)N[C@@H](C(=O)N[C@H](Cc1c[nH]c2ccccc12)C(=O)N1CCC[C@@H]1C(=O)N[C@@H](C(=O)N[C@H](CCSC)C(=O)O)[C@H](C)O)[C@H](C)O [dTIT7, T[D] I[D] T[D] W[D] P[D] T[D] M[D]]		Kd ([2]; QCM method, dTIT7 and Anxa1, read-out: dissociation constant (Kd value)): 45.7 nM
CC(C)C[C@@H](NC(=O)[C@@H](CC(C)C)NC(=O)[C@@H](CO)NC(=O)[C@H](NC(=O)[C@H]1CCCN1C(=O)[C@H](N)CO)[C@H](C)O)C(=O)N[C@H](Cc1ccccc1)C(=O)O [dSPT7, S[D] P[D] T[D] S[D] L[D] L[D] F[D]] (H-[dS][dP][dT][dS][dL][dL][dF]-OH; N-terminus and C-terminus assumed)	90.3 nM	
